The text below walks through data of US7977304B2, “FK 228 derivates as HDAC inhibitors” (University of Southampton Highfield, priority 2005, dated 2011).

For assay [1], the system named is HDAC (Hela Nuclear Extract). Put plainly: Activity Assay 5: in vitro HDAC fluorescent activity assay (Biomol kit). It is filed as biochemical. Conditions: compounds reduced with DTT prior to analysis, 37° C., 1 hour, read-out: Inhibition of HDAC activity IC50. On the procedure:
We analysed the ability of compounds to inhibit in vitro HDAC activity. In vitro HDAC assays were performed using a HDAC fluorescent activity assay kit (Biomol, UK) according to the manufacturer's instructions. Compounds were reduced prior to analysis; 1 mM compound was reduced with 30 mM DTT in DMSO overnight at room temperature, protected from light. Reactions were then set up in a 96-well plate. […] Serial dilutions were set up for each compound. Reactions containing Hela extract only and assay buffer only were also set up. 25 μl diluted Fluor de Lys™ substrate (100-fold in assay buffer) was added to each reaction, which were then incubated at 37° C. for 1 hour. The reaction was stopped by addition of 50 μl Fluor de Lys™ Developer (20-fold dilution in assay buffer, plus TSA diluted 100-fold). […] Inhibition of in vitro HDAC activity was determined for mean values of duplicate samples as percentages relative to HeLa extract only reactions. IC50 values were calculated using GraphPad Prism software.

The test system of another assay is MCF7 breast cancer cells. Description: Activity Assay 6: CyQuant cell growth inhibition, MCF7. The format is cell-based. Conditions: Homo sapiens, 144 h, MCF7, 6 days. The method, then:
(§1) We analysed the ability of compounds to inhibit the in vitro growth of human cancer cells. Cell proliferation assays were performed using the CyQuant™ assay system (Molecular Probes, Inc. USA) according to the manufacturer's instructions. MCF7 breast, A2780 ovarian and PC3 and LNCAP prostate cancer cells were plated in 96 well plates, at a density of 1000 cells for MCF7 cells or 5000 cells for M780/PC3/LNCAP cells, in 100 μl of cell culture medium per well. Compounds were added a minimum of 5 hours later, in serial dilutions in cell culture medium, in 100 μl volumes at 2× final concentration. Cell culture medium was removed after 4 (A2780, PC3 or LNCAP cells) or 6 days (MCF7 cells) by inversion of the plate onto blotting paper and cells were gently washed once with 200 μl PBS. Plates were frozen immediately for a minimum of one hour at −80° C. and then thawed. 200 μl of 1× CyQuant cell lysis buffer supplemented with dye, made according to the manufacturer's instruction, was added immediately to each well and incubated at room temperature for 3-5 minutes. Fluorescence was then measured for each well using a Cytofluor II Fluoresence Multiwell Plate Reader and CytoFluor II software with filters at 480 nm for excitation and 520 nm for emission maxima. Cell proliferation was determined for mean values of duplicate samples as percentages relative to untreated cell samples (=100%). Growth inhibition curves were used to derive IC50 values.

The test system of assay [2] is TNFα production from peripheral blood mononuclear cells (PBMCs). Put plainly: Activity Assay 7: LPS-induced TNFα secretion from PBMCs (QUANTIKINE immunoassay). The format is cell-based. Conditions: Homo sapiens, PBMC. The method, then: We analysed the ability of compounds to inhibit the production of TNFα from peripheral blood mononuclear cells (PBMCs). TNF-α immunoassays were carried out using the QUANTIKINE® Human TNF-α assay kit (R&D systems, Abingdon UK) according to the manufacturer's instructions. […] Compounds were added 1 hour later in volumes of 100 μl at 6× final concentration. Five hours later lipopolysaccharide (LSP, Sigma, Poole, UK) was added in a volume of 10 μl at 60× final concentration. Plates were mixed and left overnight at 37° C. 5% C02. Plates were centrifuged and cell supernatant was transferred to a new plate. The QUANTIKINE® assay reagents and standards were prepared according to the manufacturer instructions. The QUANTIKINE® assay plate was prepared by adding 50 μl of assay diluent RD1F into each well. This was followed by 200 μl of standard or 100 μl of calibrator diluent plus 100 μl cell supernatant; this was incubated for 2 hours at room temperature (RT). The plate was washed using wash buffer 4 times. After the final wash the plate was tapped on clean paper towel to remove all residual buffer. 200 μl of TNF-α conjugate was added to each well and incubated for 1 hour at RT. The plate was then washed as before. The required amount of substrate solution was prepared by adding equal volumes of colour reagents A and B, protecting from light, 200 μl of this mix was added to each well and incubated for 20 mins at RT, protected from light. 50 μl of stop solution was added to each well in the same order as the substrate solution and the plate was read on a Biorad 680 96 well plate reader (Bio-Rad, Hemel Hempstead, UK) at 450 nm with λ correction at 570 nm. TNF-α levels were determined for mean values of duplicate samples using absorbance in nm, calibration zero values were subtracted from all results to correct for the addition of calibrator diluent in the assay.

The subject of assay [3] is PC3 prostate cancer cells. Put plainly: Activity Assay 6: CyQuant cell growth inhibition, PC3. It is filed as cell-based. The settings on record: Homo sapiens, 96 h, PC3, 4 days. On the procedure:
as §1

Assay [4] concerns A2780 ovarian cancer cells. Description: Activity Assay 6: CyQuant cell growth inhibition, A2780. The settings on record: Homo sapiens, 96 h, A2780, 4 days. The format is cell-based. The method, then:
as §1

Assay [5] concerns LNCAP prostate cancer cells. Put plainly: Activity Assay 6: CyQuant cell growth inhibition, LNCAP. It is filed as cell-based. Conditions: Homo sapiens, 96 h, 4 days. The method, then:
as §1

The subject of the next assay is MCF7 cells. Description: Activity Assay 3: cell cycle distribution and survival by propidium iodide flow cytometry. The format is cell-based. The settings on record: MCF7, ~10×IC50 for growth inhibition, 24, 48 or 72 hours. The method, then: Method; MCF7 cells were incubated with indicated concentrations of compounds, or left untreated as a control, for various times, as detailed in the figure legends. Cells were collected and the proportion of cells in different phases of the cell cycle determined using propidium iodide staining and flow cytometry as previously described (Purohit et al., Int J Ca 85, 584-9 2000). The proportion of cells with <G0/G1 content (pre G0) relative to total cells was calculated first. The proportion of cells in different cell cycle phases (G0/G1, S, G2/M) was calculated as a proportion of all cells in the cell cycle (i.e., total cells minus cells with <G0/G1 content).
MCF7 cells were incubated with the indicated concentrations of compounds (each equivalent to ˜10×IC50 values for growth inhibition), or DMSO as a solvent control, for 24, 48 or 72 hours. The proportion of cells in different phases of the cell cycle was determined by flow cytometry. Data shown are mean values ±SD, derived from two separate experiments, relative to untreated cells which are normalised to 1.
(Flow cytometry measures light scatter and fluorescence of single cells or particles in a stream.)

Usually IC50 stands for the concentration needed to halve the response being measured. As for `CC(C)[C@H]1NC(=O)[C@H]2CSSCC/C=C/[C@H](CC(=O)N[C@H](Cc3ccccc3)C(=O)N2)OC(=O)CNC1=O` [Compound 9B, (E)-(1S,7R,10S,21R)-21-benzyl-7-isopropyl-2-oxa-12,13-dithia-5,8,20,23-tetraaza-bicyclo[8.7.6]tricos-16-ene-3,6,9,19,22-pentaone], the IC50 in assay [1] was 25 nM; with MCF7 breast cancer cells, 2.9 nM.
The like results for `CC(C)[C@H]1NC(=O)C[C@H]2/C=C/CCSSC[C@@H](NC1=O)C(=O)N[C@H](C(C)C)C(=O)NCC(=O)O2` [Compound 9C, (E)-(1S,7R,10S,21R)-7,21-diisopropyl-2-oxa-12,13-dithia-5,8,20,23-tetraaza-bicyclo[8.7.6]tricos-16-ene-3,6,9,19,22-pentaone] were, in that order, 9.9 nM and 5.2 nM.
What is called inhibition is the change of the read-out against control, counted positive when it falls. A low value points to a weak effect. For `CC(C)[C@H]1NC(=O)[C@H]2CSSCC/C=C/[C@H](CC(=O)N[C@H](C)C(=O)N2)OC(=O)[C@@H](C)NC1=O` [Compound 9E, (E)-(1S,4R,7R,10S,21R)-7-isopropyl-4,21-dimethyl-2-oxa-12,13-dithia-5,8,20,23-tetraaza-bicyclo[8.7.6]tricos-16-ene-3,6,9,19,22-pentaone], the inhibition at 0.2 µM in assay [2] (Concentration 200 nM) was found to be 84%. For the same molecule, the IC50 turned out to be 296 nM in assay [3]; 87 nM in assay [1]; 651 nM in assay [4]; 1190 nM in assay [5]; 117 nM in the assay on MCF7 breast cancer cells.
In assay [2] (Concentration 7.5 nM), `CC(C)[C@H]1NC(=O)[C@H]2CSSCC/C=C/[C@H](CC(=O)N[C@H](CCC(=O)OC(C)(C)C)C(=O)N2)OC(=O)CNC1=O` [Compound 9F, 3-((E)-(1S,7R,10S,21R)-7-Isopropyl-3,6,9,19,22-pentaoxo-2-oxa-12,13-dithia-5,8,20,23-tetraaza-bicyclo[8.7.6]tricos-16-en-21-yl)-propionic acid tert-butyl ester] returned an inhibition at 0.0075 µM of 68%. Further, the IC50 is 0.8 nM in assay [3]; 8 nM in assay [1]; 3 nM in assay [4]; 6.7 nM in assay [5]; 1.6 nM in the assay on MCF7 breast cancer cells.
As for `CC(C)[C@H]1NC(=O)[C@H]2CSSCC/C=C/[C@H](CC(=O)N[C@H](CCC(=O)O)C(=O)N2)OC(=O)CNC1=O` [Compound 10F, 3-((E)-(1S,7R,10S,21R)-7-Isopropyl-3,6,9,19,22-pentaoxo-2-oxa-12,13-dithia-5,8,20,23-tetraaza-bicyclo[8.7.6]tricos-16-en-21-yl)-propionic acid], the figures for the IC50 (in assay [1]; in the assay with MCF7 breast cancer cells) were 1.7 nM and 457 nM, respectively.
Take `O=C(CCCCCCC(=O)Nc1ccccc1)NO` [SAHA, Suberoylanilide hydroxamic acid, reference compound]: in the assay with MCF7 cells, the “cell cycle distribution and survival” value was “induce a predominant G2/M phase arrest and cell death”.
